Measured values reported in ChEMBL document CHEMBL1649196, “Comparative in vitro susceptibilities of human mycoplasmas and ureaplasmas to a new investigational ketolide, CEM-101” (2009).
Values after ≈ are worked out from the molar mass of the structure shown.

Assays:
Type in all cases: functional
[1] = tested on: Mycoplasmoides pneumoniae; experiment: Antimicrobial activity against Mycoplasma pneumoniae isolated from human by two fold serial dilution method
[2] = tested on: Mycoplasma genitalium; experiment: Antimicrobial activity against Mycoplasma genitalium isolated from human by two fold serial dilution method; settings: Mycoplasmoides genitalium
[3] = tested on: Mycoplasma fermentans; experiment: Antimicrobial activity against Mycoplasma fermentans isolated from human by two fold serial dilution method; settings: Mycoplasmopsis fermentans
[4] = tested on: Metamycoplasma hominis; experiment: Antimicrobial activity against Mycoplasma hominis isolated from human by two fold serial dilution method
[5] = tested on: Ureaplasma parvum; experiment: Antimicrobial activity against Ureaplasma parvum isolated from human by two fold serial dilution method
[6] = tested on: Ureaplasma urealyticum; experiment: Antimicrobial activity against Ureaplasma urealyticum isolated from human by two fold serial dilution method

| Structure (SMILES) | MIC50 [1] [ng/mL] | MIC90 [1] [ng/mL] | MIC [2] [ng/mL] | MIC50 [3] [ng/mL] | MIC90 [3] [ng/mL] | MIC50 [4] [ng/mL] | MIC90 [4] [ng/mL] | MIC50 [5] [ng/mL] | MIC90 [5] [ng/mL] | MIC50 [6] [ng/mL] | MIC90 [6] [ng/mL] | MIC [3] [ng/mL] | MIC [4] [ng/mL] | MIC [6] [ng/mL] |
| --- | --- | --- | --- | --- | --- | --- | --- | --- | --- | --- | --- | --- | --- | --- |
| C[C@H]1COc2c(N3CCN(C)CC3)c(F)cc3c(=O)c(C(=O)O)cn1c23.C[C@H]1COc2c(N3CCN(C)CC3)c(F)cc3c(=O)c(C(=O)O)cn1c23.O [LEVOFLOXACIN] | 500 | 500 | 125 | 31 | 125 | 250 | 500 | 500 | 2000 | 500 | 1000 |  |  | 500 |
| CC(=O)NC[C@H]1CN(c2ccc(N3CCOCC3)c(F)c2)C(=O)O1 [LINEZOLID] | 64000 (≈ 190000 nM) | 128000 (≈ 379000 nM) | 4000 (≈ 11900 nM) | 1000 (≈ 2960 nM) | 4000 (≈ 11900 nM) | 2000 (≈ 5930 nM) | 4000 (≈ 11900 nM) | > 256000 | > 256000 |  | > 256000 |  |  | ≥ 256000 |
| C[C@H]1c2cccc(O)c2C(=O)C2=C(O)[C@]3(O)C(=O)C(C(N)=O)=C(O)[C@@H](N(C)C)[C@@H]3[C@@H](O)[C@@H]21.O [DOXYCYCLINE] | 125 | 250 | ≤ 8 | 125 | 500 | 125 | 8000 | 8000 | 16000 | 1000 | 16000 |  |  |  |
| CC[C@H]1OC(=O)[C@H](C)[C@@H](O[C@H]2C[C@@](C)(OC)[C@@H](O)[C@H](C)O2)[C@H](C)[C@@H](O[C@@H]2O[C@H](C)C[C@H](N(C)C)[C@H]2O)[C@](C)(O)C[C@@H](C)CN(C)[C@H](C)[C@@H](O)[C@]1(C)O [AZITHROMYCIN] | 0.25 (≈ 0.334 nM) | 0.5 (≈ 0.668 nM) | ≤ 0.032 | 500 (≈ 668 nM) | 500 (≈ 668 nM) |  |  | 2000 (≈ 2670 nM) | 4000 (≈ 5340 nM) | 2000 (≈ 2670 nM) | 4000 (≈ 5340 nM) |  |  |  |
| CCC[C@@H]1C[C@@H](C(=O)N[C@@H]([C@H]2O[C@H](SC)[C@H](O)[C@@H](O)[C@H]2O)[C@H](C)Cl)N(C)C1 [CLINDAMYCIN] |  |  |  | 16 (≈ 37.6 nM) | 31 (≈ 72.9 nM) | ≤ 8 | 16 (≈ 37.6 nM) |  |  |  |  |  | ≤ 8 |  |

Second part, led by results:

| MIC50 [1] [ng/mL] | MIC90 [1] [ng/mL] | MIC [2] [ng/mL] | MIC50 [3] [ng/mL] | MIC90 [3] [ng/mL] | MIC50 [4] [ng/mL] | MIC90 [4] [ng/mL] | MIC50 [5] [ng/mL] | MIC90 [5] [ng/mL] | MIC50 [6] [ng/mL] | MIC90 [6] [ng/mL] | MIC [3] [ng/mL] | MIC [4] [ng/mL] | Structure (SMILES) | MIC [6] [ng/mL] |
| --- | --- | --- | --- | --- | --- | --- | --- | --- | --- | --- | --- | --- | --- | --- |
| 0.032 (≈ 0.0379 nM) | 0.125 (≈ 0.148 nM) | ≤ 0.032 | ≤ 8 | ≤ 8 | 4 (≈ 4.73 nM) | 8 (≈ 9.47 nM) | 8 (≈ 9.47 nM) | 16 (≈ 18.9 nM) | 8 (≈ 9.47 nM) | 31 (≈ 36.7 nM) | ≤ 8 |  | CC[C@H]1OC(=O)[C@@](C)(F)C(=O)[C@H](C)[C@@H](O[C@@H]2O[C@H](C)C[C@H](N(C)C)[C@H]2O)[C@](C)(OC)C[C@@H](C)C(=O)[C@H](C)[C@H]2N(CCCCn3cc(-c4cccc(N)c4)nn3)C(=O)O[C@]12C [SOLITHROMYCIN] |  |
| 0.25 (≈ 0.308 nM) | 1 (≈ 1.23 nM) | ≤ 0.03 | ≤ 8 | 16 (≈ 19.7 nM) | 250 (≈ 308 nM) | 500 (≈ 616 nM) | 63 (≈ 77.6 nM) | 125 (≈ 154 nM) | 63 (≈ 77.6 nM) | 250 (≈ 308 nM) |  |  | CC[C@H]1OC(=O)[C@H](C)C(=O)[C@H](C)[C@@H](O[C@@H]2O[C@H](C)C[C@H](N(C)C)[C@H]2O)[C@](C)(OC)C[C@@H](C)C(=O)[C@H](C)[C@H]2N(CCCCn3cnc(-c4cccnc4)c3)C(=O)O[C@]12C [TELITHROMYCIN] |  |
